Reference: patent US8309582B2, “Small molecule Bcl-Xl/Bcl-2 binding inhibitors” (The Ohio State University Research Foundation, priority 2004, dated 2012)
Where two headings read alike, the source gives them in different places.

What was measured:
Bcl-xL = target: T1, Bcl-xL (Homo sapiens, UniProt Q07817); assay: Competitive fluorescence polarization assay, displacement of Flu-BakBH3 peptide from Bcl-xL; assay type: binding
T1 construct: fused on or other part: His tag
Description: (§1) Competitive Fluorescence Polarization Assay. The binding affinity of the test agent to Bcl-2 and Bcl-xL was analyzed by a competitive fluorescence polarization assay, in which the ability of the agent to displace the binding of a Bak BH3-domain peptide to either Bcl-2 or Bcl-xL was determined. Flu-BakBH3, a Bak-BH3 peptide labeled at the N-terminus with fluorescein, was purchased from Genemed Synthesis (San Francisco, Calif.). C-Terminal-truncated, His-tagged Bcl-xL was purchased from EMD Biosciences (San Diego, Calif.), and soluble GST-fused Bcl-2 was obtained from Santa Cruz (Santa Cruz, Calif.). The KD determination was carried out in a dual-pathlength quartz cell with readings taken at […] at room temperature using a luminescence spectrometer according to an established procedure (17). Determination of IC50 values. Data from cell viability and FP assays were analyzed by using the CalcuSyn software (Biosoft, Ferguson, Mo.) to determine IC50 values, in which the calculation was based on the medium effect equation (18), i.e., Log(fa/fu)=m log(D)−m log(Dm) (equation 1), where fa and fu denote fraction affected and unaffected, respectively; m represents the Hill-type coefficient signifying the sigmoidicity of the dose-effect curve; D and Dm are the dose used and IC50, respectively.

Bcl-2 = Bcl-2 (Homo sapiens, UniProt P10415); assay: Competitive fluorescence polarization assay, displacement of Flu-BakBH3 peptide from Bcl-2; assay type: binding
Description: as §1

PC-3 cells = assay: Cell viability analysis (MTT) in PC-3 cells; assay type: cell-based; details: Homo sapiens, PC-3, PC-3 cells, read-out: IC50 (μM) PC3
Description: Cell viability analysis. The effect of individual test agents on cell viability was assessed by using the MTT {[3-(4,5-dimethylthiazol-2-yl)-2,5-diphenyl-2H-tetrazolium bromide]} assay in six to twelve replicates. […] Controls received DMSO vehicle at a concentration equal to that in drug-treated cells. […] Supernatants were removed from the wells, and the reduced MTT dye was solubilized in 200 μl/well DMSO. Absorbance at 570 nm was determined on a plate reader.
(§2) Determination of IC50 values. Data from cell viability and FP assays were analyzed by using the CalcuSyn software (Biosoft, Ferguson, Mo.) to determine IC50 values, in which the calculation was based on the medium effect equation (18), i.e., Log(fa/fu)=m log(D)−m log(Dm) (equation 1), where fa and fu denote fraction affected and unaffected, respectively; m represents the Hill-type coefficient signifying the sigmoidicity of the dose-effect curve; D and Dm are the dose used and IC50, respectively.

[1] = WB (IC50 for WB, Tables 1-9); assay type: cell-based; details: marker, cell line and unit inferred
Description: Immunoblotting. Cells in T-75 flasks were collected by scraping, and suspended in 60 μl of phosphate-buffered saline (PBS). Two μl of the suspension was taken for protein analysis using the Bradford assay kit (Bio-Rad, Hercules, Calif.). To the remaining solution was added the same volume of 2×SDS-PAGE sample loading buffer (100 mM Tris-HCl, pH 6.8, 4% SDS, 5% β-mercaptoethanol 20% glycerol, and 0.1% bromophenol blue). The mixture was sonicated briefly, and boiled for 5 min. Equal amounts of proteins were loaded onto 10% SDS-PAGE gels.
After electrophoresis, protein bands were transferred to nitrocellulose membranes in a semidry transfer cell. The transblotted membrane was washed twice with Tris-buffered saline (TBS) containing 0.1% Tween 20 (TBST). After blocking with TBST containing 5% nonfat milk for 40 min, the membrane was incubated with the appropriate primary antibody in TBST-1% nonfat milk at 4° C. overnight. All primary antibodies were diluted 1:1000 in 1% nonfat milk-containing TBST. After treatment with the primary antibody, the membrane was washed three times with TBST for a total of 15 min, followed by incubation with goat anti-rabbit or anti-mouse IgG-horseradish peroxidase conjugates (diluted 1:5000) for 1 h at room temperature and three washes with TBST for a total of 1 h. The immunoblots were visualized by enhanced chemiluminescence.

[2] = MTT assay (IC50 for MTT, Tables 1-9); assay type: cell-based; details: cell line and unit inferred
Description: Cell viability analysis. The effect of individual test agents on cell viability was assessed by using the MTT {[3-(4,5-dimethylthiazol-2-yl)-2,5-diphenyl-2H-tetrazolium bromide]} assay in six to twelve replicates. Cells were seeded and incubated in 96-well, flat-bottomed plates in serum-free media for 24 h, and were exposed to various concentrations of test agents dissolved in DMSO (final concentration, 0.1%) in serum-free RPMI 1640 medium for different time intervals. Controls received DMSO vehicle at a concentration equal to that in drug-treated cells. The medium was removed, replaced by 200 μl of 0.5 mg/ml of MTT in 10% FBS-containing RPMI-1640 medium, and cells were incubated in the CO2 incubator at 37° C. for 2 h. Supernatants were removed from the wells, and the reduced MTT dye was solubilized in 200 μl/well DMSO. Absorbance at 570 nm was determined on a plate reader.
as §2

[3] = unit inferred, read-out: IC50 for inhibiting BH3-mediated protein interactions (Bcl-xL)
[4] = unit inferred, read-out: IC50 for inhibiting BH3-mediated protein interactions (Bcl-2)
[5] = inhibition of Bak BH3 peptide binding to Bcl-xL, FP, read-out: IC50 Bcl-xl/Bak
[6] = inhibition of Bak BH3 peptide binding to Bcl-2, FP, read-out: IC50 Bcl-2/Bak

T1 sequence (Q07817 1-209 limits assumed): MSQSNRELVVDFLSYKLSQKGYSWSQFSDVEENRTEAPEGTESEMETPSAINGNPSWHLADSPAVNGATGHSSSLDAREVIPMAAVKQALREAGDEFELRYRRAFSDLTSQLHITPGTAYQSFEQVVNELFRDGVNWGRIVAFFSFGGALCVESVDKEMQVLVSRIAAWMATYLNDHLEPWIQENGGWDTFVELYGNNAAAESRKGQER
Sequence of Bcl-2 (P10415 whole entry): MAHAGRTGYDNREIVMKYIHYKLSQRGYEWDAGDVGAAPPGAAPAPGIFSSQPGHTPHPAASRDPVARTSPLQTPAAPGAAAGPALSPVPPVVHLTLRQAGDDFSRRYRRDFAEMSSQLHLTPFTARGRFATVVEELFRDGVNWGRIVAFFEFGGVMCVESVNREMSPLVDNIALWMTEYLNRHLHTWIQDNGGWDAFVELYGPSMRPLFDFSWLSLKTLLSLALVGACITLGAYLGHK

SMILES	IC50 (Bcl-xL; [3])	IC50 (Bcl-2; [4])	IC50 (Bcl-xL; [5])	IC50 (Bcl-2; [6])	IC50 (PC-3 cells)	IC50 [1]	IC50 [2]
CCc1ccc(CCOc2ccc(CC3SC(=O)NC3=O)cc2)nc1 (stereo not drawn) [PG, pioglitazone, reference compound]	> 50 µM	> 50 µM					
CN(CCOc1ccc(CC2SC(=O)NC2=O)cc1)c1ccccn1 (stereo not drawn) [RG, rosiglitazone, reference compound]	> 50 µM	> 50 µM					
C=CCOc1c(C)c(C)c2c(c1C)CCC(C)(COc1ccc(/C=C3\SC(=S)NC3=O)cc1)O2 (stereo not drawn) [TG-3]			4.8 ± 0.5 µM	7.3 ± 0.3 µM	10 ± 1.2 µM		
Cc1c(C)c2c(c(C)c1OC/C=C/c1ccccc1)CCC(C)(COc1ccc(/C=C3\SC(=O)NC3=O)cc1Br)O2 (stereo not drawn) [TG-11]			2.2 ± 0.2 µM	3.1 ± 0.4 µM	6 ± 0.3 µM	> 7.5 µM	
Cc1c(C)c2c(c(C)c1OCc1ccccc1)CCC(C)(COc1ccc(/C=C3\SC(=O)NC3=O)cc1)O2 (stereo not drawn) [TG-12]			14 ± 1.1 µM	18 ± 0.9 µM	18 ± 1.3 µM	3.6 µM	
CC(C)=CCOc1c(C)c(C)c2c(c1C)CCC(C)(COc1ccc(/C=C3\SC(=O)NC3=O)cc1)O2 (stereo not drawn) [TG-14]			4.5 ± 0.4 µM	4.8 ± 0.4 µM	9 ± 1 µM	7 µM	
O=C1NC(=O)/C(=C/c2ccc(OCC3CCc4ccccc4C3)cc2)S1 (stereo not drawn) [TG-15]			16 ± 0.5 µM	18 ± 0.9 µM	12 ± 0.9 µM	3.8 µM	
COc1cc(/C=C2\SC(=O)NC2=O)ccc1OCC1(C)CCc2c(C)c(OCC=C(C)C)c(C)c(C)c2O1 (stereo not drawn) [TG-16]			6.5 ± 0.5 µM	4.8 ± 0.5 µM	4.7 ± 0.2 µM	5.6 µM	
CC(C)=CCOc1c(C)c(C)c2c(c1C)CCC(C)(COc1ccc(/C=C3\SC(=O)NC3=O)cc1C)O2 (stereo not drawn) [TG-17]			2.6 ± 0.3 µM	3.1 ± 0.4 µM	4.8 ± 0.3 µM	3.2 µM	
C=CCOc1c(C)c(C)c2c(c1C)CCC(C)(COc1ccc(/C=C3\SC(=O)NC3=O)cc1Br)O2 (stereo not drawn) [TG-27]			2.1 ± 0.2 µM	2.7 ± 0.4 µM	5 ± 0.5 µM	> 7.5 µM	
C=CCOc1c(C)c(C)c2c(c1C)CCC(C)(COc1ccc(/C=C3\SC(=O)NC3=O)cc1OC)O2 (stereo not drawn) [TG-28]			4 ± 0.3 µM	4.4 ± 0.3 µM	5.2 ± 0.5 µM	2.3 µM	
C=CCOc1c(C)c(C)c2c(c1C)CCC(C)(COc1ccc(/C=C3\SC(=O)NC3=O)cc1C)O2 (stereo not drawn) [TG-29]			3 ± 0.3 µM	3.5 ± 0.6 µM	5.1 ± 0.4 µM	3.6 µM	
CC(C)=CCOc1c(C)c(C)c2c(c1C)CCC(C)(COc1ccc(/C=C3\SC(=O)NC3=O)cc1F)O2 (stereo not drawn) [TG-30]			2.7 ± 0.3 µM	3.4 ± 0.5 µM	6 ± 0.4 µM	7.2 µM	
CC(C)=CCOc1c(C)c(C)c2c(c1C)CCC(C)(COc1ccc(/C=C3\SC(=O)NC3=O)cc1-c1ccc(F)cc1)O2 (stereo not drawn) [TG-32]			6.5 ± 0.5 µM	6.6 ± 0.6 µM	5 ± 0.4 µM	> 7.5 µM	
CC(C)=CCOc1c(C)c(C)c2c(c1C)CCC(C)(COc1c(Br)cc(/C=C3\SC(=O)NC3=O)cc1Br)O2 (stereo not drawn) [TG-34]			2 ± 0.2 µM	2.8 ± 0.4 µM	4.4 ± 0.4 µM	2.7 µM	
CC(C)=CCOc1c(C)c(C)c2c(c1C)CCC(C)(COc1ccc(/C=C3\SC(=O)NC3=O)cc1[N+](=O)[O-])O2 (stereo not drawn) [TG-35]					> 50 µM	2.7 µM	
CC(C)=CCOc1c(C)c(C)c2c(c1C)CCC(C)(COc1ccc(C=C(C#N)C#N)cc1Br)O2 (stereo not drawn) [TG-36]					> 50 µM	> 7.5 µM	> 50 µM
CC(C)=CCOc1c(C)c(C)c2c(c1C)CCC(C)(COc1ccc(/C=C/C(=O)O)cc1Br)O2 (stereo not drawn) [TG-37]					6 ± 0.7 µM	> 7.5 µM	
CCOC(=O)C(C)(C)C(O)c1ccc(OCC2(C)CCc3c(C)c(OCC=C(C)C)c(C)c(C)c3O2)c(Br)c1 (stereo not drawn) [TG-38]					12.5 ± 0.6 µM	4.5 µM	> 50 µM
CC(C)=CCOc1c(C)c(C)c2c(c1C)CCC(C)(COc1ccc(C(O)C(C)(C)C(=O)O)cc1Br)O2 (stereo not drawn) [TG-39]					7 ± 0.4 µM	> 7.5 µM	
CC(C)=CCOc1c(C)c(C)c2c(c1C)CCC(C)(COc1ccc(/C=C3\SC(=O)NC3=O)c3ccccc13)O2 (stereo not drawn) [TG-43]					3 ± 0.2 µM	7.2 µM	
COc1cc(/C=C2\SC(=O)NC2=O)cc(Br)c1OCC1(C)CCc2c(C)c(OCC=C(C)C)c(C)c(C)c2O1 (stereo not drawn) [TG-44]					5.1 ± 0.4 µM	> 7.5 µM	
CCOc1cc(/C=C2\SC(=O)NC2=O)ccc1OCC1(C)CCc2c(C)c(OCC=C(C)C)c(C)c(C)c2O1 (stereo not drawn) [TG-45]					4.6 ± 0.3 µM	6.7 µM	
CC(C)=CCOc1c(C)c(C)c2c(c1C)CCC(C)(COc1ccc(/C=C3\SC(=S)NC3=O)c3ccccc13)O2 (stereo not drawn) [TG-46]					5.3 ± 0.3 µM	6.7 µM	
C=CCOc1c(C)c(C)c2c(c1C)CCC(C)(COc1c(C)cc(/C=C3\SC(=O)NC3=O)cc1C)O2 (stereo not drawn) [TG-52]					4.5 ± 0.2 µM	7.5 µM	
C=CCOc1c(C)c(C)c2c(c1C)CCC(C)(COc1ccc(/C=C3\SC(=O)NC3=O)c3ccccc13)O2 (stereo not drawn) [TG-53]					3.3 ± 0.3 µM	3.4 µM	
C=CCOc1c(C)c(C)c2c(c1C)CCC(C)(COc1c(Br)cc(/C=C3\SC(=O)NC3=O)cc1OC)O2 (stereo not drawn) [TG-54]						3.8 µM	
C=CCOc1c(C)c(C)c2c(c1C)CCC(C)(COc1ccc(/C=C3\SC(=O)NC3=O)cc1OCC)O2 (stereo not drawn) [TG-55]						> 7.5 µM	
CC(C)=CCOc1c(C)c(C)c2c(c1C)CCC(C)(COc1ccc(/C=C3\SC(=S)NC3=O)cc1Br)O2 (stereo not drawn) [TG-89]					4.4 ± 0.4 µM		
CN(CCOc1ccc(C=C2SC(O)=NC2=O)cc1)c1ccccn1 [Δ2-RG, 5-{4-[2-(methyl-pyridin-2-yl-amino)-ethoxy]-benzylidene}-thiazolidine-2,4-dione]	> 50 µM	> 50 µM					
